Test results from PubChem BioAssay (NCI).
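Interpolation was linear, between the two tested concentrations surrounding the appropriate level; five concentrations were tested over 48 hours in 96-well plates. At the GI50, growth is halved. TGI marks complete inhibition of growth.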

What was measured:
Assay in all cases: NCI-60 cell line screen, 48 h
HCT-15 colon = system: HCT-15 colon
HOP-92 NSCLC = system: HOP-92 NSCLC
K-562 leukemia = system: K-562 leukemia
M14 melanoma = system: M14 melanoma
MCF7 breast = system: MCF7 breast
MDA-MB-231 breast = system: MDA-MB-231 breast
NCI-H522 lung = system: NCI-H522 lung
OVCAR-8 ovarian = system: OVCAR-8 ovarian
SNB-19 CNS = system: SNB-19 CNS
T-47D breast = system: T-47D breast

Row | SMILES | GI50 (HCT-15 colon) | TGI (HCT-15 colon) | GI50 (HOP-92 NSCLC) | TGI (HOP-92 NSCLC) | GI50 (K-562 leukemia) | TGI (K-562 leukemia) | GI50 (M14 melanoma) | TGI (M14 melanoma) | GI50 (MCF7 breast) | TGI (MCF7 breast) | GI50 (MDA-MB-231 breast) | TGI (MDA-MB-231 breast) | GI50 (NCI-H522 lung) | TGI (NCI-H522 lung) | GI50 (OVCAR-8 ovarian) | TGI (OVCAR-8 ovarian) | GI50 (SNB-19 CNS) | TGI (SNB-19 CNS) | GI50 (T-47D breast) | TGI (T-47D breast)
1 | C=C1CO[C@@H]2C[C@@H]1CCC1(C)OC1CC/C(C)=C/CC[C@@]2(C)O (stereo not given in full) | 35.8 µM | > 87 µM | 36.4 µM | > 100 µM | 0.302 µM | 7.02 µM | 44.1 µM | > 100 µM | 24.7 µM | > 60.6 µM | 14.9 µM | 36.1 µM | 30.5 µM | > 76.9 µM | 39.8 µM | > 100 µM | > 85.9 µM | > 100 µM | 26.7 µM | > 69.2 µM
2 | CC(C)[C@@H](CS(=O)(=O)C(C)C)N1C(=O)[C@@](C)(CC(=O)O)C[C@H](c2cccc(Cl)c2)[C@H]1c1ccc(Cl)cc1 | 15.3 µM | > 69.3 µM | 12.9 µM | 36.3 µM | 18.3 µM | > 100 µM | 14.1 µM | 59.6 µM | 0.282 µM | 3.52 µM | 18.3 µM | 39.2 µM | 17.8 µM | 51.5 µM | 13.5 µM | > 100 µM | 14.6 µM | 66.5 µM | 7.91 µM | > 92 µM
3 | COc1ccc(C(=O)N/N=C/c2ccc(O)cc2O)cc1Nc1ccnc(C(F)(F)F)c1 | 2.45 µM | > 100 µM | 0.347 µM | 8.43 µM | 0.485 µM | > 35.6 µM | 0.731 µM | 5.55 µM | 1.57 µM | 16.5 µM | 1.71 µM | > 84.7 µM | 3.22 µM | 27.3 µM | 0.919 µM | > 71.2 µM | 0.816 µM | 56.7 µM | 0.688 µM | 15 µM
4 | Cc1[nH]nc(C(=O)Nc2n[nH]c3ccccc23)c1[N+](=O)[O-] | 33.4 µM | > 100 µM | > 100 µM | > 100 µM | > 100 µM | > 100 µM | > 96.2 µM | > 100 µM | 53.3 µM | > 100 µM | > 100 µM | > 100 µM | 39.4 µM | > 100 µM | > 100 µM | > 100 µM | > 100 µM | > 100 µM | > 100 µM | > 100 µM
5 | CCc1nc(N)nc(N)c1-c1ccc(Cl)c(N=NN(C)C)c1 | – | > 100 µM | – | > 100 µM | – | > 65 µM | – | 58.9 µM | – | > 81.6 µM | – | > 100 µM | – | 99.6 µM | – | > 100 µM | – | > 100 µM | – | > 93 µM
6 | C=C(C(=O)OC)[C@@H]1C[C@@H](O)[C@]2(C)CC/C=C(\C)CCC[C@H](C)[C@H](O)C1O2 | 59 µM | > 100 µM | 3.71 µM | 45.4 µM | 22.2 µM | 62.2 µM | 44 µM | > 100 µM | 31.7 µM | > 100 µM | 58.5 µM | > 100 µM | 26.1 µM | > 100 µM | > 100 µM | > 100 µM | 79.3 µM | > 100 µM | 52.8 µM | > 100 µM
7 | O=C1C(=O)c2c(nc3ncccn23)-c2ccccc21 | 0.166 µM | 0.358 µM | 0.271 µM | 1 µM | 0.219 µM | 2.75 µM | 0.182 µM | 0.343 µM | 0.179 µM | 0.406 µM | 0.215 µM | 0.67 µM | 0.232 µM | 0.753 µM | 0.306 µM | 1.27 µM | 0.247 µM | 0.722 µM | 0.264 µM | 1.02 µM
8 | c1ccc2c(c1)ccc1c3ccccc3ccc21 | > 50 µM | > 50 µM | > 50 µM | > 50 µM | > 50 µM | > 50 µM | > 50 µM | > 50 µM | > 50 µM | > 50 µM | > 50 µM | > 50 µM | > 50 µM | > 50 µM | > 50 µM | > 50 µM | > 50 µM | > 50 µM | > 50 µM | > 50 µM
9 | Clc1ccc(-c2cn(-c3ccccc3)c(-c3ccccc3)n2)c(Cl)c1 | 2.91 µM | > 50 µM | 11.7 µM | > 50 µM | > 24.6 µM | > 50 µM | 2.47 µM | > 15.1 µM | 1.56 µM | > 12.3 µM | 23 µM | > 50 µM | > 24.2 µM | > 50 µM | 3.18 µM | > 31.5 µM | 6.98 µM | > 42.6 µM | 2.52 µM | > 50 µM
10 | N#Cc1ccc2oc3ccc(C#N)cc3c(=O)c2c1 | – | > 100 µM | – | > 100 µM | – | > 100 µM | – | > 100 µM | – | 94.8 µM | – | > 100 µM | – | > 100 µM | – | > 100 µM | – | 64.8 µM | – | > 100 µM
11 | COc1ccc2c(c1)C(=O)c1c-2n(CCCCl)c(=O)c2cc(N(C)C)ccc12 | > 100 µM | > 100 µM | 3.42 µM | 23.4 µM | > 100 µM | > 100 µM | > 100 µM | > 100 µM | 28.6 µM | > 100 µM | 21.8 µM | 81 µM | 18.9 µM | > 100 µM | 42.5 µM | > 100 µM | 56.4 µM | > 100 µM | 34.6 µM | > 100 µM
12 | O=C(Nc1ccccc1F)c1ccc(NC2=C(Cl)C(=O)N(Cc3ccccc3)C2=O)cc1 | 3.38 µM | 12.3 µM | 1.91 µM | 5.03 µM | 2.68 µM | 12.1 µM | 4.02 µM | 17 µM | 2.02 µM | 5.06 µM | 2.8 µM | 13.8 µM | 2.21 µM | 5.34 µM | 2.84 µM | 7.86 µM | 11.6 µM | 23.8 µM | 3.06 µM | 8.01 µM
